Test results: ChEMBL document CHEMBL1201862, “PubChem BioAssay data set” (2004)
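Five concentrations, 48 hours, 96-well plates. GI50: concentration for 50% inhibition of growth.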 Activity calls are given as the source filed them. Rule as the data show it: active = GI50 up to about 1.1 µM and inactive = higher.

How the values were obtained:
Experiment in all cases: inhibition of tumour cell growth, NCI panel, 48 h
MOLT-4 = test system: MOLT-4
TK-10 = test system: TK-10
HCT-15 = test system: HCT-15
RPMI-8226 = test system: RPMI-8226
Malme-3M = test system: Malme-3M
SF-295 = test system: SF-295
SW-620 = test system: SW-620
SF-539 = test system: SF-539
HCC 2998 = test system: HCC 2998
DLD-1 = test system: DLD-1
HCT-116 = test system: HCT-116
M14 = test system: M14
OVCAR-3 = test system: OVCAR-3
786-0 = test system: 786-0
SK-MEL-5 = test system: SK-MEL-5
HL-60 = test system: HL-60
HOP-92 = test system: HOP-92
OVCAR-4 = test system: OVCAR-4

Compound	GI50 (MOLT-4)	GI50 (TK-10)	GI50 (HCT-15)	GI50 (RPMI-8226)	GI50 (Malme-3M)	GI50 (SF-295)	GI50 (SW-620)	GI50 (SF-539)	GI50 (HCC 2998)	GI50 (DLD-1)	GI50 (HCT-116)	GI50 (M14)	GI50 (OVCAR-3)	GI50 (786-0)	GI50 (SK-MEL-5)	GI50 (HL-60)	GI50 (HOP-92)	GI50 (OVCAR-4)
CC(C)(C)C1CCC(O)(c2ccccc2)CC1 (stereo unspecified)	59.8 µM (inactive)	> 100 µM (inactive)	94.2 µM	47.8 µM (inactive)	> 100 µM (inactive)	> 100 µM (inactive)	> 100 µM (inactive)	> 100 µM (inactive)	> 100 µM (inactive)	> 100 µM (inactive)	96.2 µM (inactive)	71.8 µM (inactive)	70.1 µM (inactive)	63.2 µM (inactive)	38.3 µM (inactive)	27.4 µM (inactive)		
c1ccc2c(c1)SC(=C1Sc3ccccc3S1)S2	> 100 µM (inactive)	> 100 µM (inactive)	> 100 µM		> 100 µM (inactive)	> 100 µM (inactive)	> 100 µM (inactive)		> 100 µM (inactive)	> 100 µM (inactive)		> 100 µM (inactive)	> 100 µM (inactive)	> 100 µM (inactive)			61.7 µM (inactive)	> 100 µM (inactive)
Cc1cc(C)c(-c2noc(-c3ccc(Cl)cc3)c2C2=NCCN2)c(C)c1	16.6 µM (inactive)		22.2 µM	17.9 µM (inactive)	20.4 µM (inactive)	14 µM (inactive)	32.4 µM (inactive)	16.8 µM (inactive)	17.8 µM (inactive)	22.4 µM (inactive)	12.1 µM (inactive)	12.2 µM (inactive)	21 µM (inactive)	15.3 µM (inactive)	11.7 µM (inactive)	14.4 µM (inactive)		78.9 µM (inactive)
COc1ccc(NC(=O)C/C(C)=N\N=C(N)N)c([N+](=O)[O-])c1	> 100 µM (inactive)	> 100 µM (inactive)	> 100 µM	> 100 µM (inactive)	> 100 µM (inactive)	> 100 µM (inactive)		> 100 µM (inactive)	> 100 µM (inactive)	34.5 µM (inactive)	> 100 µM (inactive)	> 100 µM (inactive)	> 100 µM (inactive)	> 100 µM (inactive)	> 100 µM (inactive)	88.5 µM (inactive)	> 100 µM (inactive)	> 100 µM (inactive)
N#CC1(Cc2ccc(N)cc2)c2ccccc2C=CN1C(=O)c1ccccc1 (stereo unspecified)	28.9 µM (inactive)	44.4 µM (inactive)		35.2 µM (inactive)	24.4 µM (inactive)	33 µM (inactive)	68.2 µM (inactive)	60.5 µM (inactive)	> 100 µM (inactive)	40 µM (inactive)	54 µM (inactive)	25.6 µM (inactive)	43.9 µM (inactive)	50.2 µM (inactive)	21.8 µM (inactive)	15.8 µM (inactive)	33.6 µM (inactive)	
C#CCNC(=O)NCCCCC(NC(C)=O)C(=O)NCc1ccccc1 (stereo unspecified)	> 100 µM (inactive)	> 100 µM (inactive)	> 100 µM	> 100 µM (inactive)	> 100 µM (inactive)	> 100 µM (inactive)	> 100 µM (inactive)	> 100 µM (inactive)	> 100 µM (inactive)	> 100 µM (inactive)	> 100 µM (inactive)	> 100 µM (inactive)	> 100 µM (inactive)	> 100 µM (inactive)	> 100 µM (inactive)		> 100 µM (inactive)	> 100 µM (inactive)
C/C(=N\NS(=O)(=O)c1ccc(C)cc1)c1c(O)cc(C)oc1=O	> 100 µM (inactive)	> 100 µM (inactive)	> 100 µM		> 100 µM (inactive)	> 100 µM (inactive)	> 100 µM (inactive)	> 100 µM (inactive)	> 100 µM (inactive)	> 100 µM (inactive)	> 100 µM (inactive)	> 100 µM (inactive)		> 100 µM (inactive)	> 100 µM (inactive)	> 100 µM (inactive)	> 100 µM (inactive)	29.1 µM (inactive)
Cc1ccc2c(c1)-c1c3c(nn1-c1ccccc1)-c1ccccc1SC3O2 (stereo unspecified)	> 100 µM (inactive)	> 100 µM (inactive)		63.8 µM (inactive)	> 100 µM (inactive)	> 100 µM (inactive)	> 100 µM (inactive)	> 100 µM (inactive)	> 100 µM (inactive)	> 100 µM (inactive)	> 100 µM (inactive)		> 100 µM (inactive)	> 100 µM (inactive)		> 100 µM (inactive)	> 100 µM (inactive)	
CC1OC(OP(=O)(OCc2ccccc2)OCc2ccccc2)C(OC(=O)c2ccccc2)C(OC(=O)c2ccccc2)C1I (stereo unspecified)	17.3 µM (inactive)	> 100 µM (inactive)	45.9 µM	19.6 µM (inactive)	39.4 µM (inactive)	88.3 µM (inactive)	72.8 µM (inactive)		54.6 µM (inactive)	50 µM (inactive)	28.1 µM (inactive)	37.6 µM (inactive)	46 µM (inactive)	50.9 µM (inactive)	27.3 µM (inactive)	20.7 µM (inactive)		60.1 µM (inactive)
